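48-hour exposure; five concentrations; linearly interpolated endpoints. At the TGI there is no net growth.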
Assays:
Assay in all cases: inhibition of tumour cell growth, NCI panel, 48 h
[1] = test system: A498 renal
[2] = test system: BT-549 breast
[3] = test system: HCC-2998 colon
[4] = test system: HCT-116 colon
[5] = test system: HL-60(TB) leukemia
[6] = test system: KM12 colon
[7] = test system: MCF7 breast
[8] = test system: MDA-N
[9] = test system: MOLT-4 leukemia
[10] = test system: NCI-H23 lung
[11] = test system: OVCAR-3 ovarian
[12] = test system: OVCAR-4 ovarian
[13] = test system: OVCAR-5 ovarian
[14] = test system: RXF 393 renal
[15] = test system: SF-295 CNS
[16] = test system: SK-OV-3 ovarian
[17] = test system: SN12C renal
[18] = test system: U251 CNS
[19] = test system: RPMI-8226 leukemia

SMILES	TGI [1]	TGI [2]	TGI [3]	TGI [4]	TGI [5]	TGI [6]	TGI [7]	TGI [8]	TGI [9]	TGI [10]	TGI [11]	TGI [12]	TGI [13]	TGI [14]	TGI [15]	TGI [16]	TGI [17]	TGI [18]	TGI [19]
CCN(CC)C(=S)N/N=C/c1cc(OC)ccc1O	18 µM	> 100 µM	27.8 µM	> 100 µM	7.44 µM	> 100 µM	9.84 µM	> 100 µM	28.6 µM	> 100 µM	> 100 µM	> 100 µM	> 100 µM	> 100 µM	> 100 µM	> 100 µM	90.6 µM	> 100 µM	–
CCOC(=O)c1cn(CC)c2ccc3ccsc3c2c1=O	> 100 µM	> 100 µM	> 100 µM	> 100 µM	> 100 µM	> 100 µM	> 100 µM	> 100 µM	> 100 µM	> 100 µM	> 100 µM	> 100 µM	> 100 µM	> 100 µM	> 100 µM	> 100 µM	–	> 100 µM	> 100 µM
O=C(CCc1ccc(O)c(O)c1)NCCc1cc(O)c(O)c(O)c1	> 100 µM	31.1 µM	> 100 µM	33 µM	> 100 µM	> 100 µM	21.7 µM	30.6 µM	46.5 µM	31.3 µM	34.5 µM	34.5 µM	> 100 µM	> 100 µM	33.3 µM	> 100 µM	31.9 µM	31.7 µM	> 100 µM
COc1ccc(-n2c(Cn3nnc(-c4cccnc4)n3)nn(C3OC(COC(=O)c4ccccc4)C(OC(=O)c4ccccc4)C3OC(=O)c3ccccc3)c2=S)cc1 (centres undefined)	> 100 µM	> 100 µM	> 100 µM	> 100 µM	> 100 µM	> 100 µM	> 100 µM	> 100 µM	> 100 µM	> 100 µM	> 100 µM	> 100 µM	> 100 µM	> 100 µM	> 100 µM	> 100 µM	> 100 µM	> 100 µM	> 100 µM
Cc1c(-c2nc(N)c(C#N)c(N)c2C#N)c(=O)oc2ccccc12	> 100 µM	> 100 µM	> 100 µM	> 100 µM	> 100 µM	> 100 µM	> 100 µM	> 100 µM	–	> 100 µM	> 100 µM	> 100 µM	> 100 µM	> 100 µM	> 100 µM	> 100 µM	> 100 µM	> 100 µM	62.4 µM
COc1cc2cc3c4cc(OC)c(OC)cc4cc[n+]3c(C)c2cc1OC	> 100 µM	> 100 µM	> 100 µM	> 100 µM	> 100 µM	> 100 µM	> 100 µM	> 100 µM	> 100 µM	> 100 µM	> 100 µM	> 100 µM	> 100 µM	–	> 100 µM	> 100 µM	> 100 µM	> 100 µM	> 100 µM
c1ccc2cc(CNCCCCNCCCNCc3ccc4ccccc4c3)ccc2c1	4.42 µM	3.37 µM	0.944 µM	0.318 µM	–	0.97 µM	3.06 µM	2.54 µM	–	3.43 µM	3.52 µM	3.08 µM	3.61 µM	3.16 µM	2.96 µM	3.48 µM	0.879 µM	1.25 µM	0.712 µM
COC(=O)c1ccc(C)cc1C1CN=NC12Cc1cc(C)ccc1C2=O (centres undefined)	55.5 µM	> 85.7 µM	> 71.4 µM	28.6 µM	16.3 µM	44.1 µM	24 µM	6.11 µM	> 86.6 µM	66.5 µM	> 80.1 µM	98.7 µM	> 100 µM	> 71.6 µM	> 77.2 µM	> 100 µM	> 87.1 µM	> 70.6 µM	66.2 µM
CCCCCCCCCCCCCCCC(=O)Nc1ccn(C2CCC(COP(=O)(O)OCC3OC(n4cc(F)c(=O)[nH]c4=O)CC3OC(C)=O)O2)c(=O)n1 (centres undefined)	> 100 µM	58.4 µM	> 48.2 µM	34.1 µM	27.9 µM	34.8 µM	44.1 µM	50.4 µM	30.4 µM	47.9 µM	59 µM	> 86.5 µM	> 74.5 µM	> 100 µM	29.6 µM	> 90.2 µM	> 73.7 µM	36.3 µM	52.9 µM
O=C(NCCc1ccccc1)c1cc(/C=C/c2cc(O)ccc2O)ccc1O	13.6 µM	3.7 µM	21.7 µM	4.19 µM	9.65 µM	24.6 µM	9.42 µM	9.81 µM	7.5 µM	17.7 µM	8.11 µM	3.76 µM	25.3 µM	2.93 µM	35.2 µM	26.4 µM	19 µM	5.28 µM	7.21 µM
C=C1CC(C)(COc2cc(=O)oc3ccccc23)OC1=O (centres undefined)	8.74 µM	7.89 µM	42.9 µM	9.64 µM	4.83 µM	27.3 µM	4.28 µM	16.3 µM	7.15 µM	11.4 µM	16.7 µM	16.9 µM	22.3 µM	–	30.6 µM	22.5 µM	21.4 µM	28.9 µM	4.18 µM
CCCCCCCc1cscc1-c1cscc1Br	> 100 µM	> 100 µM	75.6 µM	> 100 µM	–	80.7 µM	> 100 µM	> 100 µM	42.3 µM	> 100 µM	–	> 100 µM	89.4 µM	67 µM	79.8 µM	> 100 µM	> 100 µM	> 100 µM	47 µM
CCc1ccc(Nc2cc(=O)n(C)c(SCc3ccccc3)n2)cc1	29.7 µM	> 100 µM	–	57.1 µM	> 100 µM	> 100 µM	> 100 µM	> 100 µM	> 100 µM	> 100 µM	> 100 µM	–	> 100 µM	> 100 µM	> 100 µM	> 100 µM	42.8 µM	–	–

From PubChem BioAssay (NCI)
